From article PMC12473689, “Drug Metabolism and Pharmacokinetics of Oxazolo[4,5-c]quinoline Analogs as Novel Interleukin-33 Inhibitors” (Pharmaceutics, 2025)
Where two headings read alike, the source gives them in different places.

Assay: Pharmacokinetic study after single IV and PO dose
Format: in vivo
Details: male ICR mice; for bioavailability: oral, 10 mg/kg; for half-life: noncompartmental analysis
Method: All animal procedures were reviewed and approved by the Institutional Animal Care and Use Committee (IACUC) of Korea University (Approval No: KUIACUC-2020-0031) and conducted in compliance with the IACUC guidelines. […] In accordance with an approved protocol, mice were euthanized by CO2 asphyxiation at the end of the study. For intravenous (IV) administration, KB-1517 was dissolved in a vehicle of dimethylacetamide/Tween 80/water (5/5/90, v/v/v) at 1 mg/mL. KB-1518 (as TFA salt) was dissolved in DMSO/saline (10/90, v/v) at 1 mg/mL. Mice (n = 4 per group per compound) received a single IV dose of 5 mg/kg via the tail vein (dose volume: 5 mL/kg). For oral (PO) administration, the same formulations were used, and mice (n = 4 per group per compound) received a single dose of 10 mg/kg via oral gavage (dose volume: 10 mL/kg). For intraperitoneal (IP) administration, a suspension of KB-1517 or KB-1518 (0.4 mg/mL in PBS) was prepared by diluting a DMSO stock solution (13 mg/mL). Mice (n = 4 per compound) received a single IP injection of 0.2 mg per animal (dose volume: 500 µL). Serial blood samples (approximately 40 µL) were collected via the saphenous vein into Microvette® 100LH heparinized capillary tubes at selected time points. […] Plasma samples were stored in freezer until LC-MS/MS analysis. Protein precipitation was performed on 15 µL aliquots of plasma samples by adding three volumes of acetonitrile containing diclofenac as an analytical internal standard. The mixture was vortexed thoroughly and centrifuged at 3000× g for 30 min at 4 °C. A 50 µL aliquot of the resulting supernatant was transferred to a 96-well plate and mixed with 50 µL of water. The prepared solutions were analyzed using an Agilent 6460 QQQ LC-MS/MS system (Agilent Technologies Korea Ltd., Seoul, Republic of Korea). Quantitative analysis was performed using an Agilent 1290 Infinity Series HPLC system (Agilent Technologies Korea Ltd., Seoul, Republic of Korea) coupled to an Agilent 6460 QQQ mass spectrometer system (Agilent Technologies Korea Ltd., Seoul, Republic of Korea) with a dual AJS ESI ion source operating in positive ion mode. For chromatographic separation, an Agilent Eclipse Plus C18 column (2.1 × 100 mm, 3.5 µm) (Agilent Technologies Korea Ltd., Seoul, Republic of Korea) protected by a Phenomenex SecurityGuard C18 guard column was used. The mobile phase consisted of (A) 0.1% formic acid in water and (B) 0.1% formic acid in acetonitrile. […] The flow rate was 0.45 mL/min, the injection volume was 3 µL, and the column temperature was 40 °C. The ion source parameters for the mass spectrometer were set as follows: gas temperature 325 °C, gas flow 12 L/min, nebulizer pressure 35 psi, sheath gas temperature 350 °C, and sheath gas flow 10 L/min. Multiple Reaction Monitoring (MRM) transitions were used for quantification: KB-1517: m/z 402 → 72 (CE 10 V); KB-1518: m/z 402 → 72 (CE 5 V); Diclofenac (IS): m/z 296 → 215 (CE 30 V); […] Ranitidine: m/z 315 → 102 (CE 33 V); Itraconazole: m/z 705 → 395 (CE 40 V); […] Data acquisition and processing were performed using Agilent MassHunter Quantitative Analysis software (ver. B.05.00). Calibration curves were constructed using weighted linear regression. Noncompartmental analysis (NCA) was performed using PKSolver to determine pharmacokinetic parameters from the plasma concentration-time data. Parameters included: maximum plasma concentration (Cmax), time to reach Cmax (tmax), terminal elimination half-life (t1/2), area under the plasma concentration-time curve from time zero to the last measurable concentration (AUClast), area under the plasma concentration-time curve extrapolated to infinity (AUCinf), total body clearance (CL), and volume of distribution at steady state (Vss). […] Due to the anomalous profile of KB-1517, AUClast was used for its F calculation, and some parameters (t½, CL, Vss for IV; AUCinf for PO) could not be reliably determined (ND). […]

[1] = mouse, plasma, single IV dose 5 mg/kg, mean ± SD (n = 4)
[2] = mouse, plasma, single PO dose 10 mg/kg, mean ± SD (n = 4)

With `CN(C)CCn1c(=O)c2nc(-c3ccc(C(F)(F)F)cc3)oc2c2ccccc21` [KB-1517, 5-(2-(dimethylamino)ethyl)-2-(4-(trifluoromethyl)phenyl)oxazolo[4,5-c]quinolin-4(5H)-one] the “F (apparent oral bioavailability)” value (PO 10 mg/kg vs IV 5 mg/kg, calculated using AUClast) was 119.3 ± 20.1%, the bioavailability (male, ICR, mouse, plasma, PO 10 mg/kg vs IV 5 mg/kg, calculated using AUClast, read-out: F (apparent oral bioavailability)) was > 100% and the AUC(0-t) [1] was 1830 ± 348 ng·h/mL. It also gave an AUC(0-t) [2] of 4370 ± 738 ng·h/mL, a Cmax [2] of 289 ± 34.1 ng/mL and a Tmax [2] of 5.6 ± 3.5 h.
In the case of `CN(C)CCOc1nc2ccccc2c2oc(-c3ccc(C(F)(F)F)cc3)nc12` [KB-1518, N,N-dimethyl-2-((2-(4-(trifluoromethyl)phenyl)oxazolo[4,5-c]quinolin-4-yl)oxy)ethan-1-amine], the “F (oral bioavailability)” value (PO 10 mg/kg vs IV 5 mg/kg, calculated from AUCinf) is reported as 13.6 ± 3.4%, the CL (single IV dose 5 mg/kg, mean ± SD (n = 4), 5 mg/kg) is reported as 25 ± 3.3 mL/min/kg and the clearance (male, ICR, mouse, plasma, iv, 5 mg/kg, single IV dose 5 mg/kg, mean ± SD (n = 4)) is reported as ~25 mL/min/kg. For the same compound, the Vd (male, ICR, mouse, plasma, iv, 5 mg/kg, single IV dose 5 mg/kg, mean ± SD (n = 4), read-out: Vss) was ~4.6 L/kg, the bioavailability (male, ICR, mouse, plasma, PO 10 mg/kg vs IV 5 mg/kg, calculated from AUCinf, read-out: F (oral bioavailability)) was ~14% and the AUC(0-inf) [1] was 3460 ± 476 ng·h/mL. For the same compound, the AUC(0-t) [1] was 3460 ± 474 ng·h/mL, the AUC(0-inf) [2] was 942 ± 234 ng·h/mL and the AUC(0-t) [2] was 868 ± 267 ng·h/mL. For the same compound, the Cmax [2] was 157 ± 104 ng/mL, the Tmax [2] was 1.6 ± 0.8 h and the half-life (mouse, single IV dose 5 mg/kg, plasma, mean ± SD (n = 4)) was 2.6 ± 0.3 h. The half-life (mouse, single PO dose 10 mg/kg, plasma, mean ± SD (n = 4)) was 6.2 ± 1.9 h.
